This is an account of results in PubChem BioAssay AID328 (DTP/NCI, 2004).

“And” between values parts separate entries of the source, which are not always exact repeats. Identical values can stand only once. Toxic doses and inconclusive results are not listed.

For the assay, the system named is BDF1 mice, P388 leukemia ip, median survival T/C. Description: NCI In Vivo Anticancer Drug Screen. Data for tumor model P388 Leukemia (intraperitoneal) in B6D2F1 (BDF1) mice. The conditions noted are these: endpoint: median survival time, higher = longer survival. A digest of the protocol:
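Mice carrying the transplantable tumour receive compound or vehicle. Survival is followed in each arm, and the treated measure is divided by the vehicle measure.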

The mark [1] stands for this setting: dose: 100.0 mg/kg/injection, schedule: Q01DX009 (ip), vehicle: saline.
The mark [2] stands for this setting: dose: 100.0 mg/kg/injection, schedule: Q04DX003 (ip), vehicle: saline.
The mark [3] stands for this setting: dose: 200.0 mg/kg/injection, schedule: Q04DX003 (ip), vehicle: saline.
Setting [4] is: dose: 100.0 mg/kg/injection, schedule: Q04DX003 (ip), vehicle: Klucel (hydroxypropylcellulose) (HPC).
Where [5] appears, read: dose: 200.0 mg/kg/injection, schedule: Q04DX003 (ip), vehicle: Klucel (hydroxypropylcellulose) (HPC).
Setting [6] is: dose: 400.0 mg/kg/injection, schedule: Q04DX003 (ip), vehicle: Klucel (hydroxypropylcellulose) (HPC).
The mark [7] stands for this setting: dose: 100.0 mg/kg/injection, schedule: Q01DX009 (ip), vehicle: saline with Tween-80.
[8] abbreviates: dose: 200.0 mg/kg/injection, schedule: Q01DX009 (ip), vehicle: saline with Tween-80.
The mark [9] stands for this setting: dose: 400.0 mg/kg/injection, schedule: Q01DX009 (ip), vehicle: saline with Tween-80.
Where [10] appears, read: dose: 200.0 mg/kg/injection, schedule: Q01DX009 (ip), vehicle: saline.
The mark [11] stands for this setting: dose: 400.0 mg/kg/injection, schedule: Q04DX003 (ip), vehicle: saline.

Consider `Cc1nccnc1N`, for which the T/C (dose: 6.25 mg/kg/injection, schedule: Q01DX009 (ip), vehicle: saline) was 94 % of control; the T/C (dose: 12.5 mg/kg/injection, schedule: Q01DX009 (ip), vehicle: saline) was 105 % of control; the T/C (dose: 25.0 mg/kg/injection, schedule: Q01DX009 (ip), vehicle: saline) is 102 % of control; the T/C (dose: 50.0 mg/kg/injection, schedule: Q01DX009 (ip), vehicle: saline) was 102 % of control; the T/C (dose: 50.0 mg/kg/injection, schedule: Q04DX003 (ip), vehicle: saline) was 94 % of control; the T/C under setting [1] was 105 % of control. For the same compound, the T/C is 98 % of control and 102 % of control under setting [2]; 88 % of control (dose: 150.0 mg/kg/injection, schedule: Q04DX003 (ip), vehicle: saline); 100 % of control and 124 % of control under setting [3]; 100 % of control (dose: 300.0 mg/kg/injection, schedule: Q04DX003 (ip), vehicle: saline).
As for `O=C(c1ccc([N+](=O)[O-])cc1)C(Br)C(Br)c1ccncc1` (configuration not stated), the T/C was 105 % of control (dose: 50.0 mg/kg/injection, schedule: Q01DX001 (ip), vehicle: Klucel (hydroxypropylcellulose) (HPC)); 110 % of control (dose: 100.0 mg/kg/injection, schedule: Q01DX001 (ip), vehicle: Klucel (hydroxypropylcellulose) (HPC)); 113 % of control under setting [4]; 115 % of control (dose: 200.0 mg/kg/injection, schedule: Q01DX001 (ip), vehicle: Klucel (hydroxypropylcellulose) (HPC)); 113 % of control under setting [5]; 113 % of control under setting [6].
As for `O=C(O)C1CCC2CCCCC2[N-]1.O=C(O)C1CCC2CCCCC2[N-]1.[Cu+2]` (configuration not stated), the T/C is, setting by setting: (dose: 6.25 mg/kg/injection, schedule: Q04DX003 (ip), vehicle: saline) 100 % of control; (dose: 12.5 mg/kg/injection, schedule: Q04DX003 (ip), vehicle: saline) 90 % of control; (dose: 25.0 mg/kg/injection, schedule: Q04DX003 (ip), vehicle: saline) 100 % of control.
Take `O=C1c2ccccc2C(=O)c2c(O)c3c(c(O)c21)CC=CC3`: the T/C is 107 % of control (dose: 3.12 mg/kg/injection, schedule: Q01DX009 (ip), vehicle: saline with Tween-80); 112 % of control (dose: 6.25 mg/kg/injection, schedule: Q01DX009 (ip), vehicle: saline with Tween-80); 104 % of control (dose: 12.5 mg/kg/injection, schedule: Q01DX009 (ip), vehicle: saline with Tween-80); 98 % of control (dose: 25.0 mg/kg/injection, schedule: Q01DX009 (ip), vehicle: saline with Tween-80); 98 % of control (dose: 50.0 mg/kg/injection, schedule: Q01DX009 (ip), vehicle: saline with Tween-80).
Take `Cc1ccc(S(=O)(=O)N2CC(O)CC2C(=O)O)cc1` (configuration not stated): the T/C (dose: 100.0 mg/kg/injection, schedule: Q01DX001 (ip), vehicle: saline with Tween-80) was 118 % of control; the T/C (dose: 200.0 mg/kg/injection, schedule: Q01DX001 (ip), vehicle: saline with Tween-80) was 100 % of control; the T/C (dose: 400.0 mg/kg/injection, schedule: Q01DX001 (ip), vehicle: saline with Tween-80) is 113 % of control.
As for `COC(=O)C(Br)C(OC)c1ccc(C)cc1` (configuration not stated), the T/C under setting [7] was 100 % of control, the T/C under setting [8] is 100 % of control and the T/C under setting [9] is 95 % of control.
As for `CC1(C)OC(=O)CC(=O)O1`, the T/C is, setting by setting: under setting [1], 105 % of control; under setting [2], 91 % of control; under setting [10], 100 % of control; under setting [3], 91 % of control; under setting [11], 100 % of control.
In the case of `COc1cc2cc(Oc3ccc4ccc(=O)oc4c3)c(=O)oc2cc1O`, the T/C was 95 % of control (dose: 3.12 mg/kg/injection, schedule: Q01DX009 (ip), vehicle: carboxymethylcellulose (CMC)); 116 % of control (dose: 6.25 mg/kg/injection, schedule: Q01DX009 (ip), vehicle: carboxymethylcellulose (CMC)); 90 % of control (dose: 6.25 mg/kg/injection, schedule: Q01DX009 (ip), vehicle: saline + alcohol); 104 % of control (dose: 12.5 mg/kg/injection, schedule: Q01DX009 (ip), vehicle: carboxymethylcellulose (CMC)); 95 % of control (dose: 12.5 mg/kg/injection, schedule: Q01DX009 (ip), vehicle: saline + alcohol); 108 % of control (dose: 25.0 mg/kg/injection, schedule: Q01DX009 (ip), vehicle: carboxymethylcellulose (CMC)). Besides, the T/C (dose: 25.0 mg/kg/injection, schedule: Q01DX009 (ip), vehicle: saline + alcohol) is 113 % of control.
Consider `CCOC(=O)c1c[nH]c2cc(Cl)ccc2c1=O`, for which, where the note is “dose: 75.0 mg/kg/injection, schedule: Q04DX003 (ip), vehicle: Klucel (hydroxypropylcellulose) (HPC)”, the T/C is 96 % of control.
Consider `C#CCN(C)CCO`, for which the T/C was 105 % of control (dose: 100.0 mg/kg/injection, schedule: Q01DX001 (ip), vehicle: saline); 90 % of control (dose: 100.0 mg/kg/injection, schedule: Q04DX003 (ip), vehicle: alcohol); 95 % of control (dose: 200.0 mg/kg/injection, schedule: Q01DX001 (ip), vehicle: saline); 100 % of control (dose: 200.0 mg/kg/injection, schedule: Q04DX003 (ip), vehicle: alcohol); 100 % of control (dose: 400.0 mg/kg/injection, schedule: Q01DX001 (ip), vehicle: saline); 100 % of control (dose: 400.0 mg/kg/injection, schedule: Q04DX003 (ip), vehicle: alcohol).
In the case of `O=NN(CCCl)C(=O)NCC1CCC(CNC(=O)N(CCCl)N=O)CC1` (configuration not stated), the T/C was 113 % of control (dose: 3.13 mg/kg/injection, schedule: Q01DX009 (ip), vehicle: other); 122 % of control (dose: 6.25 mg/kg/injection, schedule: Q01DX009 (ip), vehicle: other); 116 % of control (dose: 12.5 mg/kg/injection, schedule: Q01DX009 (ip), vehicle: other); 154 % of control (dose: 25.0 mg/kg/injection, schedule: Q01DX009 (ip), vehicle: Klucel (hydroxypropylcellulose) (HPC)); 154 % of control (dose: 26.4 mg/kg/injection, schedule: Q01DX009 (ip), vehicle: other); 159 % of control (dose: 40.0 mg/kg/injection, schedule: Q01DX009 (ip), vehicle: other). In addition, the T/C by setting is: (dose: 44.0 mg/kg/injection, schedule: Q01DX009 (ip), vehicle: other) 227 % of control; (dose: 50.0 mg/kg/injection, schedule: Q01DX009 (ip), vehicle: Klucel (hydroxypropylcellulose) (HPC)) 115 % of control; (dose: 66.0 mg/kg/injection, schedule: Q01DX009 (ip), vehicle: other) 240 % of control; (dose: 66.0 mg/kg/injection, schedule: Q04DX003 (ip), vehicle: saline sonified) 170 % of control; (dose: 100.0 mg/kg/injection, schedule: Q01DX009 (ip), vehicle: Klucel (hydroxypropylcellulose) (HPC)) 169 % of control; (dose: 100.0 mg/kg/injection, schedule: Q01DX009 (ip), vehicle: other) 272 % of control and 300 % of control. Also, the T/C reads like this: (dose: 100.0 mg/kg/injection, schedule: Q04DX003 (ip), vehicle: saline sonified) 175 % of control and 185 % of control; (dose: 150.0 mg/kg/injection, schedule: Q01DX009 (ip), vehicle: other) 245 % of control; (dose: 150.0 mg/kg/injection, schedule: Q04DX003 (ip), vehicle: saline sonified) 180 % of control; (dose: 200.0 mg/kg/injection, schedule: Q01DX009 (ip), vehicle: Klucel (hydroxypropylcellulose) (HPC)) 176 % of control; (dose: 200.0 mg/kg/injection, schedule: Q04DX003 (ip), vehicle: saline sonified) 240 % of control.
Turning to `CNC(=O)Oc1ccc2ccccc2c1`, the T/C under setting [7] was 111 % of control, the T/C under setting [8] was 113 % of control and the T/C under setting [9] was 103 % of control.
In the case of `O=C(Cn1cc(F)c(=O)[nH]c1=O)N1CCC2(CC1)SSC1(CCN(C(=O)Cn3cc(F)c(=O)[nH]c3=O)CC1)S2`, the T/C by setting is: under setting [1], 90 % of control; under setting [2], 104 % of control; under setting [10], 95 % of control; under setting [3], 95 % of control; under setting [11], 104 % of control.
Take `CCOC(=O)/C(C#N)=C\C=C\c1ccccc1`: the T/C runs as follows: under setting [4], 86 % of control; under setting [5], 90 % of control; under setting [6], 90 % of control.
